In US11096942B2, “Heterocyclic compounds and uses thereof” (Celgene CAR LLC, priority 2010, dated 2021):
Where two headings read alike, the source gives them in different places.

Tests used:
[1] = tested on: HCC827 cells (EGFR delE746-A750); assay: Cell proliferation (CellTiter Glo, 72 hr), HCC827 cells; type: cell-based, human
Method: (§1) A431 human epidermoid carcinoma, H1975 human NSCLC and HCC827 human NSCLC adenocarcinoma cells were obtained from the American Type Culture Center (Manassas, Va.). A431 cells were grown in DMEM (Invitrogen, Carlsbad, Calif.) supplemented with 10% FBS (HyClone, South Logan, Utah) and 1% Penicillin-Streptomycin (P/S, Lonza, Walkersville, Md.).
(§2) Cells were plated in Growth Media supplemented with 5% FBS and 1% P/S at a density of 3,000 cells per well in 96 well tissue culture plates (Corning). […] Growth inhibition (GI50) values were determined by Graph Pad Prism.

[2] = tested on: H1975 cells (EGFR L858R/T790M); assay: Cell proliferation (CellTiter Glo, 72 hr), H1975 cells; type: cell-based, human
Method: as §1, §2

[3] = molecular target: EGFR L858R/T790M (H1975 cells) (Homo sapiens (Human), UniProt P00533, L858R/T790M); assay: Phospho-EGFR signaling immunoblot (1 hr), H1975 cells; type: cell-based; settings: WT EGFR (A431) vs H1975
Method: as §1
All primary antibodies were obtained from Cell Signaling (Danvers, Mass.) and used at 1:1000. Secondary antibodies were used at 1:10,000. Goat anti-mouse IgG IRDye 800CW antibody was obtained from LiCor Biosciences (Lincoln, Nebr.) and goat anti-rabbit IgG Alexa Fluor 680 was obtained from Invitrogen.
Cells were grown in 12-well plates (Corning, Coring, N.Y.) to 90% confluence and then incubated in low-serum (0.1% FBS) media for 16-18 hr. […] A431 cells were then stimulated with 50 ng/ml EGF (Peprotech, Rocky Hill, N.J.) for 15 min. After treatment, cell monolayers were washed with cold PBS (Invitrogen) and immediately lysed by scrapping into 60 uL cold Cell Extraction Buffer (Invitrogen) supplemented with Complete Protease inhibitors (Roche, Indianapolis, Ind.) and PhosphoSTOP (Roche) phosphatase inhibitors.
Phospho-protein signals were quantitated using Odyssey Infrared Imaging (Li-Cor Biosciences).
To assess phosphor-EGFR signaling, blots were probed with rabbit anti-Phospho-EGFR (Y1068) and mouse total anti-EGFR antibodies. Phospho-EGFR signal was normalized to total EGFR expression for each sample. […] Normalized data was fitted using a sigmoidal curve analysis program (Graph Pad Prism version 5) with variable Hill slope to determine the EC50 values.

[4] = proliferation, WT EGFR (A431) vs HCC827
[5] = proliferation, WT EGFR (A431) vs H1975

| Ratio WT/mutant [3] | SMILES | Ratio WT/mutant [1, 4] | Ratio WT/mutant [2, 5] | Ratio WT/mutant [1] | Ratio WT/mutant [2] |
| --- | --- | --- | --- | --- | --- |
|  | C=CC(=O)Nc1cccc(Oc2nc(Nc3ccc(N4CCOCC4)cc3OC(F)F)ncc2C(F)(F)F)c1 [Compound I-13, N-(3-(2-(2-(difluoromethoxy)-4-morpholinophenylamino)-5-(trifluoromethyl)pyrimidin-4-yloxy)phenyl)acrylamide] | >50 | >10 |  |  |
| >1 | C=CC(=O)Nc1cccc(Nc2nc(Nc3ccc(N4CCN(S(C)(=O)=O)CC4)cc3OC)ncc2Cl)c1 [Compound I-41, N-(3-(5-chloro-2-(2-methoxy-4-(4-(methylsulfonyl)piperazin-1-yl)phenylamino)pyrimidin-4-ylamino)phenyl)acrylamide] | >20 | >1 |  |  |
|  | C=CC(=O)Nc1cccc(Nc2nc(Nc3ccc(N4CCN(C(=O)OC)CC4)cc3OC)ncc2C(F)(F)F)c1 [Compound I-29, methyl 4-(4-(4-(3-acrylamidophenylamino)-5-(trifluoromethyl)pyrimidin-2-ylamino)-3-methoxyphenyl)piperazine-1-carboxylate] | >15 | >10 |  |  |
| >5 | C=CC(=O)Nc1cccc(Nc2nc(Nc3ccc(N4CCCN(C(=O)OC(C)(C)C)CC4)cc3OC)ncc2C(F)(F)F)c1 [Compound I-44, tert-butyl 4-(4-(4-(3-acrylamidophenylamino)-5-(trifluoromethyl)pyrimidin-2-ylamino)-3-methoxyphenyl)-1,4-diazpane-1-carboxylate] | >5 | >5 |  |  |
|  | C=CC(=O)Nc1cccc(Oc2nc(Nc3ccc(N4CCN(C(C)=O)CC4)cc3OC)ncc2C(F)(F)F)c1 [Compound I-10, N-(3-(2-(4-(4-acetylpiperazin-1-yl)-2-methoxyphenylamino)-5-(trifluoromethyl)pyrimidin-4-yloxy)phenyl)acrylamide] | >20 | >1 |  |  |
| >35 | C=CC(=O)Nc1cccc(Oc2nc(Nc3ccc(N4CCN(S(C)(=O)=O)CC4)cc3OC)ncc2C(F)(F)F)c1 [Compound I-22, N-(3-(2-(2-methoxy-4-(4-(methylsulfonyl)piperazin-1-yl)phenylamino)-5-(trifluoromethyl)pyrimidin-4-yloxy)phenyl)acrylamide] | >35 | >10 |  |  |
|  | C=CC(=O)Nc1cccc(Oc2nc(Nc3ccc(N4CCN(C(=O)OC(C)(C)C)CC4)cc3OCC)ncc2Cl)c1 [Compound I-18, tert-butyl 4-(4-(4-(3-acrylamidophenoxy)-5-chloropyrimidin-2-ylamino)-3-ethoxyphenyl)piperazine-1-carboxylate] | >5 | >1 |  |  |
|  | C=CC(=O)Nc1cccc(Nc2nc(Nc3ccc(N4CCCOCC4)cc3OC)ncc2C(F)(F)F)c1 [Compound I-38, N-(3-(2-(2-methoxy-4-(1,4-oxazepan-4-yl)phenylamino)-5-(trifluoromethyl)pyrimidin-4-ylamino)phenyl)acrylamide] | >5 | >1 |  |  |
|  | C=CC(=O)Nc1cccc(Oc2nc(Nc3ccc(N4CCCN(C(=O)OC(C)(C)C)CC4)cc3OC)ncc2C(F)(F)F)c1 [Compound I-39, tert-butyl 4-(4-(4-(3-acrylamidophenoxy)-5-(trifluoromethyl)pyrimidin-2-ylamino)-3-methoxyphenyl)-1,4-diazepane-1-carboxylate] | >1 | <1 |  |  |
| >35 | C=CC(=O)Nc1cccc(Nc2nc(Nc3ccc(N4CCN(C(=O)C(C)(C)C)CC4)cc3OC)ncc2C(F)(F)F)c1 [Compound I-34, N-(3-(2-(2-methoxy-4-(4-pivaloylpiperazin-1-yl)phenylamino)-5-(trifluoromethyl)pyrimidin-4-ylamino)phenyl)acrylamide] | >50 | >5 |  |  |
| >20 | C=CC(=O)Nc1cccc(Nc2nc(Nc3ccc(N4CCS(=O)(=O)CC4)cc3OC)ncc2C(F)(F)F)c1 [Compound I-49, N-(3-(2-(2-methoxy-4,4-dioxo-4-thiomorpholinophenylamino)-5-(trifluoromethyl)pyrimidin-4-ylamino)phenyl)acrylamide] | >25 | >10 |  |  |
|  | C=CC(=O)Nc1cccc(Nc2nc(Nc3ccc(N4CCOCC4)cc3OC)ncc2Cl)c1 [Compound I-15, N-(3-(5-chloro-2-(2-methoxy-4-morpholinophenylamino)pyrimidin-4-ylamino)phenyl)acrylamide] | >10 | >1 |  |  |
| >50 | C=CC(=O)Nc1cccc(Nc2nc(Nc3ccc(N4CCN(C(C)=O)CC4)cc3OC(F)(F)F)ncc2C(F)(F)F)c1 [Compound I-33, N-(3-(2-(4-(4-acetylpiperazin-1-yl)-2-(trifluoromethoxy)phenylamino)-5-(trifluoromethyl)pyrimidin-4-ylamino)phenyl)acrylamide] | >15 | >30 |  |  |
|  | C=CC(=O)Nc1cccc(Oc2nc(Nc3ccc(N4CCN(C(=O)OC)CC4)cc3OC)ncc2C(F)(F)F)c1 [Compound I-20, methyl 4-(4-(4-(3-acrylamidophenoxy)-5-(trifluoromethyl)pyrimidin-2-ylamino)-3-methoxyphenyl)piperazine-1-carboxylate] |  |  | >15 | >5 |
|  | C=CC(=O)Nc1cccc(Nc2nc(Nc3ccc(N4CCCN(C(=O)C(F)(F)F)CC4)cc3OC)ncc2C(F)(F)F)c1 [Compound I-19, N-(3-(2-(2-methoxy-4-(4-(2,2,2-trifluoroacetyl)-1,4-diazepan-1-yl)phenylamino)-5-(trifluoromethyl)pyrimidin-4-ylamino)phenyl)acrylamide] | >10 | >5 |  |  |
|  | C=CC(=O)Nc1cccc(Nc2nc(Nc3ccc(N4CCN(C(=O)OC(C)(C)C)[C@H](C(=O)OC)C4)cc3OC)ncc2C(F)(F)F)c1 [Compound I-50, (S)-1-tert-butyl 2-methyl 4-(4-(4-(3-acrylamidophenylamino)-5-(trifluoromethyl)pyrimidin-2-ylamino)-3-methoxyphenyl)piperazine-1,2-dicarboxylate] | >50 | >10 |  |  |
|  | C=CC(=O)Nc1cccc(Oc2nc(Nc3ccc(N4CCCOCC4)cc3OC)ncc2Cl)c1 [Compound I-37, N-(3-(5-chloro-2-(2-methoxy-4-(1,4-oxazepan-4-yl)phenylamino)pyrimidin-4-yloxy)phenyl)acrylamide] | >10 | >1 |  |  |
|  | C=CC(=O)Nc1cccc(Nc2nc(Nc3ccc(N4CCN(C(=O)CC)CC4)cc3OC)ncc2C(F)(F)F)c1 [Compound I-35, N-(3-(2-(2-methoxy-4-(4-propionylpiperazin-1-yl)phenylamino)-5-(trifluoromethyl)pyrimidin-4-ylamino)phenyl)acrylamide] | >25 | >10 |  |  |
|  | C=CC(=O)Nc1cccc(Oc2nc(Nc3ccc(N4CCN(C(=O)CC(C)(C)C)CC4)cc3OC)ncc2Cl)c1 [Compound I-23, N-(3-(5-chloro-2-(4-(4-(3,3-dimethylbutanoyl)piperazin-1-yl)-2-methoxyphenylamino)pyrimidin-4-yloxy)phenyl)acrylamide] | >20 | >1 |  |  |
|  | C=CC(=O)Nc1cccc(Nc2nc(Nc3ccc(N4CCN(C(=O)NC)CC4)cc3OC)ncc2C(F)(F)F)c1 [Compound I-28, 4-(4-(4-(3-acrylamidophenylamino)-5-(trifluoromethyl)pyrimidin-2-ylamino)-3-methoxyphenyl)-N-methylpiperazine-1-carboxamide] | >50 | >5 |  |  |
|  | C=CC(=O)Nc1cccc(Oc2nc(Nc3ccc(N4CCN(S(N)(=O)=O)CC4)cc3OC)ncc2C(F)(F)F)c1 [Compound I-27, N-(3-(2-(2-methoxy-4-(4-sulfamoylpiperazin-1-yl)phenylamino)-5-(trifluoromethyl)pyrimidin-4-yloxy)phenyl)acrylamide] | >10 | >1 |  |  |
|  | C=CC(=O)Nc1cccc(Oc2nc(Nc3ccc(N4CCOCC4)cc3OC(F)F)ncc2Cl)c1 [Compound I-36, N-(3-(5-chloro-2-(2-(difluoromethoxy)-4-morpholinophenylamino)pyrimidin-4-yloxy)phenyl)acrylamide] | >50 | >25 |  |  |
|  | C=CC(=O)Nc1cccc(Oc2nc(Nc3ccc(N4CCN(C(C)=O)CC4)cc3OC)ncc2Cl)c1 [Compound I-9, N-(3-(2-(4-(4-acetylpiperazin-1-yl)-2-methoxyphenylamino)-5-chloropyrimidin-4-yloxy)phenyl)acrylamide] | >50 | >5 |  |  |
